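96-well plates; 48 h exposure; 5 concentrations. Endpoints by linear interpolation between flanking doses. Not reached: highest tested concentration assigned. Abbreviation: GI50, concentration required for 50% inhibition of growth.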 Active and inactive are the calls of the source. No stated cut-off is given here; in the data, active = GI50 up to about 1.1 µM and inactive = higher.
Key:
Test in all cases: NCI-60 cell line screen, 48 h
HOP-92 = tested on: HOP-92
CAKI-1 = tested on: CAKI-1
MOLT-4 = tested on: MOLT-4
HL-60 = tested on: HL-60
T47D = tested on: T47D
UACC-62 = tested on: UACC-62
NCI-H226 = tested on: NCI-H226
MDA-N = tested on: MDA-N
HCC 2998 = tested on: HCC 2998
SK-MEL-5 = tested on: SK-MEL-5
SK-OV-3 = tested on: SK-OV-3
SW-620 = tested on: SW-620
A549 = tested on: A549
OVCAR-4 = tested on: OVCAR-4
SNB-19 = tested on: SNB-19
HOP-62 = tested on: HOP-62
CCRF-CEM = tested on: CCRF-CEM
IGROV-1 = tested on: IGROV-1
TK-10 = tested on: TK-10
MDA-MB-231 = tested on: MDA-MB-231

Row | SMILES | GI50 (HOP-92) | GI50 (CAKI-1) | GI50 (MOLT-4) | GI50 (HL-60) | GI50 (T47D) | GI50 (UACC-62) | GI50 (NCI-H226) | GI50 (MDA-N) | GI50 (HCC 2998) | GI50 (SK-MEL-5) | GI50 (SK-OV-3) | GI50 (SW-620) | GI50 (A549) | GI50 (OVCAR-4) | GI50 (SNB-19) | GI50 (HOP-62) | GI50 (CCRF-CEM) | GI50 (IGROV-1) | GI50 (TK-10) | GI50 (MDA-MB-231)
1 | COc1ccc(C(=O)CC(c2ccc(OC)c(OC)c2)c2c(O)oc3ccccc3c2=O)cc1OC (stereo unspecified) | 28.4 µM (inactive) | > 100 µM (inactive) | > 100 µM (inactive) | > 100 µM (inactive) | > 100 µM (inactive) | > 100 µM (inactive) | > 100 µM (inactive) | > 100 µM (inactive) | > 100 µM (inactive) | > 100 µM (inactive) | > 100 µM (inactive) | > 100 µM (inactive) | > 100 µM (inactive) | > 100 µM (inactive) | > 100 µM (inactive) | > 100 µM (inactive) | > 100 µM (inactive) | > 100 µM (inactive) | > 100 µM (inactive) | > 100 µM (inactive)
2 | Cc1nn(C(=O)c2ccccc2O)c2c1C(c1ccc([N+](=O)[O-])cc1)SC(=N)N2 (stereo unspecified) | 1.55 µM (inactive) | 2.19 µM (inactive) | 4.94 µM (inactive) | 4.27 µM (inactive) | 5.71 µM (inactive) | 2.03 µM (inactive) | > 4.12 µM (inactive) | 2.89 µM (inactive) | > 10 µM (inactive) | > 6.43 µM (inactive) | 6.38 µM (inactive) | 6.17 µM (inactive) | 1.47 µM (inactive) | 3.56 µM (inactive) | 6.05 µM (inactive) | 4.92 µM (inactive) | 3.32 µM (inactive) | 1.88 µM (inactive) | > 4.5 µM (inactive) | > 5.94 µM (inactive)
3 | COC(=O)CC1C=CC(C)(OC)OO1 (stereo unspecified) | > 100 µM (inactive) | > 100 µM (inactive) | > 10 µM (inactive) | 21 µM (inactive) | > 100 µM (inactive) | 49.9 µM (inactive) | > 100 µM (inactive) | > 100 µM (inactive) | 59.7 µM (inactive) | > 100 µM (inactive) | > 100 µM (inactive) | 27.2 µM (inactive) | 26 µM (inactive) | 97.9 µM (inactive) | > 100 µM (inactive) | > 100 µM (inactive) | 15.7 µM (inactive) | > 100 µM (inactive) | > 100 µM (inactive) | > 100 µM (inactive)
4 | Cc1ccc(N)c(S)c1 | 16.6 µM (inactive) | 28.8 µM (inactive) | 22 µM (inactive) | 25.2 µM (inactive) | 14.8 µM (inactive) | 17.6 µM (inactive) | 22 µM (inactive) | 14.9 µM (inactive) | 32.1 µM (inactive) | 16.5 µM (inactive) | 27.9 µM (inactive) | 17.6 µM (inactive) | 21.5 µM (inactive) | 20 µM (inactive) | 21.1 µM (inactive) | 21.5 µM (inactive) | 18 µM (inactive) | 17.7 µM (inactive) | 21.8 µM (inactive) | 17.1 µM (inactive)
5 | NC(=O)NCCCC(NC(=O)OCCCCCn1ccc(=O)[nH]c1=O)C(=O)O (stereo unspecified) | > 100 µM (inactive) | > 100 µM (inactive) | > 100 µM (inactive) | > 100 µM (inactive) | > 100 µM (inactive) | > 100 µM (inactive) | 63.2 µM (inactive) | > 100 µM (inactive) | > 100 µM (inactive) | – | > 100 µM (inactive) | > 100 µM (inactive) | > 100 µM (inactive) | > 100 µM (inactive) | > 100 µM (inactive) | > 100 µM (inactive) | > 100 µM (inactive) | 23.1 µM (inactive) | > 100 µM (inactive) | > 100 µM (inactive)
6 | O=c1cc(NNc2cccc3ccccc23)[nH]c(=O)[nH]1 | 17.4 µM (inactive) | 14.7 µM (inactive) | 17.7 µM (inactive) | 2.9 µM (inactive) | 10.2 µM (inactive) | 17.5 µM (inactive) | 13 µM (inactive) | 12.1 µM (inactive) | 20 µM (inactive) | 15.8 µM (inactive) | 26.7 µM (inactive) | 20 µM (inactive) | 17.9 µM (inactive) | 17.2 µM (inactive) | 14.3 µM (inactive) | 17 µM (inactive) | 10.1 µM (inactive) | 15.4 µM (inactive) | 19.7 µM (inactive) | 13.3 µM (inactive)
7 | C=C(C)C1CC2(C)C(C)CC(O)CC2C(OC(=O)C=C(C)C)C1O (stereo unspecified) | 23.2 µM (inactive) | 43.3 µM (inactive) | 18.1 µM (inactive) | 23 µM (inactive) | 31.8 µM (inactive) | 71.9 µM (inactive) | 0.933 µM (active) | 36.4 µM (inactive) | 43.8 µM (inactive) | 19.2 µM (inactive) | 58.6 µM (inactive) | > 10 µM (inactive) | 29.4 µM (inactive) | 29.5 µM (inactive) | 22.2 µM (inactive) | – | 30.8 µM (inactive) | 40.5 µM (inactive) | 49.2 µM (inactive) | 24.5 µM (inactive)
8 | C1=C\CCCCN2C[C@H]3CCCC/C=C\CCCCN4CC[C@@H]([C@H](CCCCCC/1)C4)[C@H](C3)C2 | 2.38 µM (inactive) | 2.79 µM (inactive) | 1.49 µM (inactive) | 2.31 µM (inactive) | 2.61 µM (inactive) | 1.87 µM (inactive) | 17.6 µM (inactive) | 1.75 µM (inactive) | 0.51 µM (active) | 1.61 µM (inactive) | 8.09 µM (inactive) | 2.44 µM (inactive) | 2.09 µM (inactive) | 1.62 µM (inactive) | 2.06 µM (inactive) | 2.23 µM (inactive) | 2.58 µM (inactive) | 3.37 µM (inactive) | 2.28 µM (inactive) | 0.979 µM (active)
9 | CCN(CC)CCn1c(=O)c2ccccc2n2c3c(=O)n(C)c(=O)n(C)c3nc12 | 1.47 µM (inactive) | 0.252 µM (active) | 0.239 µM (active) | 0.255 µM (active) | 2.15 µM (inactive) | 0.762 µM (active) | 1.16 µM (inactive) | 4.85 µM (inactive) | 1.93 µM (inactive) | 1.17 µM (inactive) | 1.37 µM (inactive) | 1.22 µM (inactive) | 0.321 µM (active) | 4.27 µM (inactive) | 2.38 µM (inactive) | 0.718 µM (active) | 0.547 µM (active) | 2.11 µM (inactive) | 19.6 µM (inactive) | 5.14 µM (inactive)
10 | O=C1c2ccccc2C(=O)N1c1nc(-c2ccc(Cl)cc2)cc(N2N=C(c3ccc(Br)cc3)CC2c2ccccc2)n1 (stereo unspecified) | 11.4 µM (inactive) | 1.51 µM (inactive) | 2.51 µM (inactive) | 2.9 µM (inactive) | 1.88 µM (inactive) | 2.72 µM (inactive) | 5.38 µM (inactive) | 1.03 µM (active) | 0.301 µM (active) | 1.96 µM (inactive) | 6.34 µM (inactive) | 2.53 µM (inactive) | 3.24 µM (inactive) | 4.23 µM (inactive) | 4.86 µM (inactive) | 2.92 µM (inactive) | 4.13 µM (inactive) | 2.84 µM (inactive) | 7.98 µM (inactive) | 4.07 µM (inactive)
11 | CC1=C(C)C2(C#N)C(=O)N3C(=NC(c4ccccc4)NC3c3ccccc3)C2(C#N)C(c2ccccc2)N1 (stereo unspecified) | > 100 µM (inactive) | > 100 µM (inactive) | > 100 µM (inactive) | > 100 µM (inactive) | > 100 µM (inactive) | > 100 µM (inactive) | > 100 µM (inactive) | > 100 µM (inactive) | > 100 µM (inactive) | > 100 µM (inactive) | > 100 µM (inactive) | > 100 µM (inactive) | > 100 µM (inactive) | > 100 µM (inactive) | > 100 µM (inactive) | > 100 µM (inactive) | > 100 µM (inactive) | > 100 µM (inactive) | > 100 µM (inactive) | > 100 µM (inactive)
12 | CN1C(Cl)=NS(=O)(=O)c2ccccc21 | > 100 µM (inactive) | 16.9 µM (inactive) | 51.4 µM (inactive) | 35.7 µM (inactive) | > 100 µM (inactive) | > 100 µM (inactive) | > 100 µM (inactive) | > 100 µM (inactive) | > 100 µM (inactive) | > 100 µM (inactive) | > 100 µM (inactive) | > 100 µM (inactive) | > 100 µM (inactive) | > 100 µM (inactive) | > 100 µM (inactive) | > 100 µM (inactive) | 34 µM (inactive) | > 100 µM (inactive) | > 100 µM (inactive) | > 100 µM (inactive)
13 | COc1ccc2c(c1)N=C1CSC(c3cc([N+](=O)[O-])ccc3Cl)N1C2 (stereo unspecified) | 19.6 µM (inactive) | 22 µM (inactive) | 22.5 µM (inactive) | 22.5 µM (inactive) | 29.5 µM (inactive) | 18.8 µM (inactive) | 62.8 µM (inactive) | 20.1 µM (inactive) | 16.6 µM (inactive) | 40.6 µM (inactive) | 25.2 µM (inactive) | 29.3 µM (inactive) | 30.9 µM (inactive) | 23.8 µM (inactive) | 32.3 µM (inactive) | 32.1 µM (inactive) | – | 34.5 µM (inactive) | 21.4 µM (inactive) | 20.8 µM (inactive)
14 | c1ccc([P+](CCCCCC[P+](c2ccccc2)(c2ccccc2)c2ccccc2)(c2ccccc2)c2ccccc2)cc1 | 8.32 µM (inactive) | > 100 µM (inactive) | 22.9 µM (inactive) | 10.6 µM (inactive) | 4.92 µM (inactive) | 18 µM (inactive) | 8.87 µM (inactive) | 16.1 µM (inactive) | 46.7 µM (inactive) | – | 62.2 µM (inactive) | 18.5 µM (inactive) | 7.41 µM (inactive) | 23.3 µM (inactive) | 0.906 µM (active) | 9.18 µM (inactive) | 13.1 µM (inactive) | 3.84 µM (inactive) | 8.36 µM (inactive) | 12.8 µM (inactive)
